Data: US20250222063A1, “TOPICAL FORMULATION FOR USE IN THE TREATMENT OR PREVENTION OF DRY ITCHY SKIN” (MC2 THERAPEUTICS LTD, priority 2022, published 2025)
Non-standard residues stand in square brackets, D forms with d. Residues, ends and D or L forms follow the SMILES beside them. Sar = CNCC(=O)O

Columns and labels:
[1] = system: bovine serum albumin (BSA); experiment: In vitro protein carbamylation assay (14C-potassium cyanate, scintillation counting); type: biochemical; conditions: 10 mM nucleophile, 75 μM BSA, 25 μM 14C-Potassium Cyanate, 37° C., 72 hours, n=3
Experimental: The tests were performed as described below. 200 μL of a 0.5% BSA solution, 200 μL of test solution and 100 μL of a 5 μCi/mL 14 C-Potassium Cyanate solution was mixed in an Eppendorf tube (corresponding to a final concentration of 75 μM BSA, 25 μM 14 C-Potassium Cyanate, and 10 mM nucleophile). Samples run in triplicates (n=3). The Eppendorf tubes were incubated at 37° C. for 72 hours.
After incubation a volume of 100 μL of each sample was transferred to a new Eppendorf tube containing 100 μL of a 10% trichloroacetic acid (TCA) and kept at 4° C. overnight (for precipitation of BSA). Subsequently, the precipitated BSA was separated from the buffer by centrifugation (10000 rpm, 30 seconds). The supernatant was removed and the BSA pellet 10 was resuspended in 200 μL of a 10% solution of cold TCA (4° C.). The pellet was recovered by centrifugation (10000 rpm, 30 seconds) and supernatant was discarded. The BSA pellet was resuspended in 100 μL purified water (MilliQ) and transferred to a scintillation vial. The Eppendorf tube (previously containing the BSA pellet) was rinsed with an additional 100 μL purified water which al was transferred to the relevant scintillation vial.

[2] = Aqueous stability in HBSS buffer at 40° C. (HPLC-UV); type: physicochemical; conditions: 3% wt/wt or 0.4% wt/wt in HBSS buffer, glass vials, 40° C., HPLC-UV, in % (unit assumed)
Experimental: An important aspect of formulating a stable topical product. Data in Table 4 below gives 1 month and 3 month stability data at 40° C. Compounds were dissolved at 3% wt/wt or 0.4% wt/wt (if 3% was not possible) in HBSS buffer and stored in glass vials at temperature. Samples were subsequently analyzed by HPLC-UV.

[3] = Skin homogenate study (degradation half-life, LC-MS/MS); type: in vitro ADME, human; conditions: pooled human skin homogenate, 37° C., compound working solution 40 μg/mL mixed with equal volume of homogenate
Experimental: To identify which of the dipeptides was readily subject to degradation by proteases and other cell processes in the skin, a number of compounds where tested in a skin homogenate study as described below and the results are listed in table 3.
Dermatomed human skin from multiple skin donors was pooled, homogenized, and adjusted to a tissue concentration of 100 mg tissue per mL of homogenate. The homogenate was used immediately following preparation without any additional freeze/thaw cycles. Working solutions of each compound were prepared in Dulbecco's phosphate-buffered saline (DPBS) at 40 μg/mL. All solutions were pre-heated to 37° C. Equal volumes of skin homogenate and compound working solution were combined, mixed, held at 37° C., and sampled at 0, 15, 30, 60, 120, and 240 minutes. Samples were quenched with acidic acetonitrile, centrifuged, and prepared for LC-MS/MS analysis. Peak areas of each compound at each time-point were determined by LC-MS/MS.
The individual half-life of each dipeptide was determined.
The nature of the experiment should be considered indicative of the relative stability of each of the compounds rather than an absolute correlation to what would happen in vivo. The process of homogenizing the skin is likely to greatly accelerate the degradation. However, it is clear that there is substantial variation in the relative rates for each dipeptide. (See Table 3)

SMILES: NCCC(=O)N[C@@H](Cc1c[nH]cn1)C(=O)O [Ala(b)-His (L-Carnosine)]
- Degree of carbamylation (% relative to HBSS control) [1]: 72.63 % relative to HBSS control
- 1 month aqueous stability at 40° C. [2]: 98.4
- 3 month aqueous stability at 40° C. [2]: 99.7

SMILES: C[C@H](N)C(=O)N[C@@H](C)C(=O)O [Ala-Ala] (H-Ala-Ala-OH)
- Half life in skin homogenate [3]: 0.383 h

SMILES: C[C@H](N)C(=O)N[C@H](C)C(=O)O [Ala-D-Ala] (H-Ala-[dA]-OH)
- Half life in skin homogenate [3]: >8 h

SMILES: C[C@@H](N)C(=O)NCC(=O)O [Ala-Gly (D)] (H-[dA]-Gly-OH)
- Half life in skin homogenate [3]: >8 h

SMILES: C[C@H](N)C(=O)NCC(=O)O [Ala-Gly] (H-Ala-Gly-OH)
- Half life in skin homogenate [3]: 1 h

SMILES: C[C@H](N)C(=O)O [Alanine, reference compound]
- Degree of carbamylation (% relative to HBSS control) [1]: 93.54 % relative to HBSS control

SMILES: Cl.N=C(N)NCCC[C@H](N)C(=O)O [Arg*HCl, reference compound]
- Degree of carbamylation (% relative to HBSS control) [1]: 66.1 % relative to HBSS control

SMILES: N=C(N)NCCC[C@H](N)C(=O)O [Arg, Arginine, reference compound]
- Degree of carbamylation (% relative to HBSS control) [1]: 52.4 % relative to HBSS control

SMILES: N[C@@H](CC(=O)O)C(=O)N[C@@H](Cc1ccccc1)C(=O)O [Asp-Phe] (H-Asp-Phe-OH)
- Half life in skin homogenate [3]: 1.28 h

SMILES: COC(=O)[C@H](Cc1ccccc1)NC(=O)[C@@H](N)CC(=O)O [Aspartame] (H-Asp-Phe-OMe)
- Degree of carbamylation (% relative to HBSS control) [1]: 30.4 % relative to HBSS control

SMILES: CC(C)C[C@H](NC(=O)[C@@H](O)[C@H](N)Cc1ccccc1)C(=O)O [Bestatin, reference compound]
- Degree of carbamylation (% relative to HBSS control) [1]: 53.4 % relative to HBSS control

SMILES: NC(=O)NCCC[C@H](N)C(=O)O [Citrulline, reference compound]
- Degree of carbamylation (% relative to HBSS control) [1]: 81.7 % relative to HBSS control

SMILES: CN(CC(=O)O)C(=N)N [Creatine, reference compound]
- Degree of carbamylation (% relative to HBSS control) [1]: 103.92 % relative to HBSS control

SMILES: NC(=O)CC[C@H](N)C(=O)O [Glutamine, reference compound]
- Degree of carbamylation (% relative to HBSS control) [1]: 74.39 % relative to HBSS control

SMILES: C[C@H](NC(=O)CN)C(=O)O [Gly-Ala] (H-Gly-Ala-OH)
- Degree of carbamylation (% relative to HBSS control) [1]: 35.27 % relative to HBSS control

SMILES: NCC(=O)N[C@@H](CC(=O)O)C(=O)O [Gly-Asp] (H-Gly-Asp-OH)
- Half life in skin homogenate [3]: >8 h

SMILES: NCC(=O)N[C@@H](CCC(N)=O)C(=O)O [Gly-Gln] (H-Gly-Gln-OH)
- Degree of carbamylation (% relative to HBSS control) [1]: 32.99 % relative to HBSS control

SMILES: NCC(=O)N[C@@H](CCC(=O)O)C(=O)O [Gly-Glu] (H-Gly-Glu-OH)
- 1 month aqueous stability at 40° C. [2]: 99.0
- 3 month aqueous stability at 40° C. [2]: 99.7

SMILES: NCC(=O)NCC(=O)O [Gly-Gly] (H-Gly-Gly-OH)
- Half life in skin homogenate [3]: >8 h

SMILES: NCC(=O)N[C@@H](Cc1cnc[nH]1)C(=O)O [Gly-His] (H-Gly-His-OH)
- Degree of carbamylation (% relative to HBSS control) [1]: 22.6 % relative to HBSS control
- Half life in skin homogenate [3]: >8 h
- 1 month aqueous stability at 40° C. [2]: 99.8
- 3 month aqueous stability at 40° C. [2]: 79.3

SMILES: NCC(=O)N1CCC[C@H]1C(=O)O [Gly-Pro] (H-Gly-Pro-OH)
- Half life in skin homogenate [3]: >8 h

SMILES: CN(CC(=O)O)C(=O)CN [Gly-Sar] (H-Gly-[Sar]-OH)
- Half life in skin homogenate [3]: >8 h

SMILES: NCC(=O)NC(CO)C(=O)O (stereo not shown) [Gly-Ser]
- Degree of carbamylation (% relative to HBSS control) [1]: 33.1 % relative to HBSS control
- 1 month aqueous stability at 40° C. [2]: 97.8
- 3 month aqueous stability at 40° C. [2]: 70.7

SMILES: CC(C)[C@H](NC(=O)CN)C(=O)O [Gly-Val] (H-Gly-Val-OH)
- Half life in skin homogenate [3]: 0.8 h

SMILES: CC(C)C[C@H](NC(=O)[C@@H](N)Cc1cnc[nH]1)C(=O)O [His-leu] (H-His-Leu-OH)
- Degree of carbamylation (% relative to HBSS control) [1]: 27.18 % relative to HBSS control

SMILES: N[C@@H](Cc1c[nH]cn1)C(=O)O [Histidine, reference compound]
- Degree of carbamylation (% relative to HBSS control) [1]: 61.1 % relative to HBSS control

SMILES: CC[C@H](C)[C@H](N)C(=O)N1CCC[C@H]1C(=O)O [Ile-Pro] (H-Ile-Pro-OH)
- Degree of carbamylation (% relative to HBSS control) [1]: 41.4 % relative to HBSS control
- Half life in skin homogenate [3]: 2.25 h
- 1 month aqueous stability at 40° C. [2]: 99.1
- 3 month aqueous stability at 40° C. [2]: 102.0

SMILES: NCCCC[C@H](N)C(=O)N1CCC[C@H]1C(=O)O [Lys-Pro] (H-Lys-Pro-OH)
- Degree of carbamylation (% relative to HBSS control) [1]: 28.6 % relative to HBSS control
- Half life in skin homogenate [3]: 0.867 h

SMILES: NCCCC[C@H](N)C(=O)O [Lysine, reference compound]
- Degree of carbamylation (% relative to HBSS control) [1]: 71.63 % relative to HBSS control

SMILES: NCCNCC(=O)O [N-β-aminoethyl-Gly]
- Degree of carbamylation (% relative to HBSS control) [1]: 29.7 % relative to HBSS control

SMILES: O=C(O)[C@@H]1CCCN1C(=O)[C@@H]1CCCN1 [Pro-Pro] (H-Pro-Pro-OH)
- Half life in skin homogenate [3]: 1.93 h

SMILES: O=C(O)[C@H](CO)NC(=O)[C@@H]1CCCN1 [Pro-Ser] (H-Pro-Ser-OH)
- Degree of carbamylation (% relative to HBSS control) [1]: 41.9 % relative to HBSS control
- Half life in skin homogenate [3]: 4.73 h
- 1 month aqueous stability at 40° C. [2]: 78.1
- 3 month aqueous stability at 40° C. [2]: 49.0

SMILES: N[C@@H](CO)C(=O)N1CCC[C@H]1C(=O)O [Ser-Pro] (H-Ser-Pro-OH)
- Degree of carbamylation (% relative to HBSS control) [1]: 26.4 % relative to HBSS control
- Half life in skin homogenate [3]: 0.683 h
- 1 month aqueous stability at 40° C. [2]: 95.5
- 3 month aqueous stability at 40° C. [2]: 88.5

SMILES: NCCS(=O)(=O)O [Taurine, reference compound]
- Degree of carbamylation (% relative to HBSS control) [1]: 58.17 % relative to HBSS control

SMILES: NC(=O)CC(NC(=O)C(N)Cc1c[nH]c2ccccc12)C(=O)O (stereo not drawn) [Trp-Asn] (H-Trp-Asn-OH; configuration not given here)
- Half life in skin homogenate [3]: 0.75 h

SMILES: N[C@@H](Cc1c[nH]c2ccccc12)C(=O)NCC(=O)O [Trp-Gly] (H-Trp-Gly-OH)
- Half life in skin homogenate [3]: 1.07 h

SMILES: NC(Cc1c[nH]c2ccccc12)C(=O)N1CCCC1C(=O)O (stereo not shown) [Trp-Pro]
- Half life in skin homogenate [3]: 0.567 h

SMILES: C[C@H](NC(=O)[C@@H](N)Cc1ccc(O)cc1)C(=O)O [Tyr-Ala]
- Degree of carbamylation (% relative to HBSS control) [1]: 26.1 % relative to HBSS control
- Half life in skin homogenate [3]: 0.833 h
- 1 month aqueous stability at 40° C. [2]: 100.4
- 3 month aqueous stability at 40° C. [2]: 94.0

SMILES: NC(N)=NCCC[C@H](NC(=O)[C@@H](N)Cc1ccc(O)cc1)C(=O)O [Tyr-Arg]
- Degree of carbamylation (% relative to HBSS control) [1]: 25.96 % relative to HBSS control

SMILES: N[C@@H](Cc1ccc(O)cc1)C(=O)N1CCC[C@H]1C(=O)O [Tyr-Pro] (H-Tyr-Pro-OH)
- Degree of carbamylation (% relative to HBSS control) [1]: 32.8 % relative to HBSS control
- Half life in skin homogenate [3]: 0.483 h

SMILES: CC(C)[C@H](N)C(=O)N1CCC[C@H]1C(=O)O [Val-Pro] (H-Val-Pro-OH)
- Degree of carbamylation (% relative to HBSS control) [1]: 22.1 % relative to HBSS control
- Half life in skin homogenate [3]: 0.65 h
- 1 month aqueous stability at 40° C. [2]: 90.5
- 3 month aqueous stability at 40° C. [2]: 80.9

SMILES: CC(C)[C@H](N)C(=O)N[C@@H](Cc1ccc(O)cc1)C(=O)O [Val-Tyr] (H-Val-Tyr-OH)
- Degree of carbamylation (% relative to HBSS control) [1]: 28.9 % relative to HBSS control
- Half life in skin homogenate [3]: <0.125 h
- 1 month aqueous stability at 40° C. [2]: 100.7
- 3 month aqueous stability at 40° C. [2]: 98.2
